Measurements: PubChem BioAssay AID330 (DTP/NCI, 2004)
Several values for one entry are separate records, joined by “and”; a condition that tells them apart may be missing. Equal entries are not always repeated. Toxic doses and inconclusive results are not listed. Rule for the calls: active = survival T/C of 150% or more; inactive = T/C below 125% in these data.

System: P388 leukemia ip, CD2F1 mice, survival T/C
Test: NCI In Vivo Anticancer Drug Screen. Data for tumor model P388 Leukemia (intraperitoneal) in CD2F1 (CDF1) mice
Conditions: endpoint: median survival time, higher = longer survival
Summary of the method: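 Mice carrying the transplanted tumor received test compound or vehicle. Survival was recorded in each group, and the value is the treated-group measurement divided by that of the vehicle-treated control group.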

[1] = dose: 25.0 mg/kg/injection, schedule: Q01DX009 (ip), vehicle: saline
[2] = dose: 50.0 mg/kg/injection, schedule: Q01DX009 (ip), vehicle: saline
[3] = dose: 100.0 mg/kg/injection, schedule: Q01DX009 (ip), vehicle: saline
[4] = dose: 50.0 mg/kg/injection, schedule: Q01DX005 (ip), vehicle: Klucel (hydroxypropylcellulose) (HPC)
[5] = dose: 100.0 mg/kg/injection, schedule: Q01DX005 (ip), vehicle: Klucel (hydroxypropylcellulose) (HPC)
[6] = dose: 200.0 mg/kg/injection, schedule: Q01DX005 (ip), vehicle: Klucel (hydroxypropylcellulose) (HPC)
[7] = dose: 50.0 mg/kg/injection, schedule: Q01DX005 (ip), vehicle: saline with Tween-80
[8] = dose: 100.0 mg/kg/injection, schedule: Q01DX005 (ip), vehicle: saline with Tween-80
[9] = dose: 200.0 mg/kg/injection, schedule: Q01DX005 (ip), vehicle: saline with Tween-80
[10] = dose: 100.0 mg/kg/injection, schedule: Q01DX001 (ip), vehicle: Klucel (hydroxypropylcellulose) (HPC)
[11] = dose: 200.0 mg/kg/injection, schedule: Q01DX001 (ip), vehicle: Klucel (hydroxypropylcellulose) (HPC)
[12] = dose: 60.0 mg/kg/injection, schedule: Q01DX005 (ip), vehicle: saline with Tween-80
[13] = dose: 120.0 mg/kg/injection, schedule: Q01DX005 (ip), vehicle: saline with Tween-80
[14] = dose: 240.0 mg/kg/injection, schedule: Q01DX005 (ip), vehicle: saline with Tween-80
[15] = dose: 400.0 mg/kg/injection, schedule: Q01DX001 (ip), vehicle: Klucel (hydroxypropylcellulose) (HPC)
[16] = dose: 25.0 mg/kg/injection, schedule: Q01DX009 (ip), vehicle: saline with Tween-80
[17] = dose: 50.0 mg/kg/injection, schedule: Q01DX009 (ip), vehicle: saline with Tween-80
[18] = dose: 100.0 mg/kg/injection, schedule: Q01DX009 (ip), vehicle: saline with Tween-80
[19] = dose: 60.0 mg/kg/injection, schedule: Q01DX005 (ip), vehicle: Klucel (hydroxypropylcellulose) (HPC)
[20] = dose: 120.0 mg/kg/injection, schedule: Q01DX005 (ip), vehicle: Klucel (hydroxypropylcellulose) (HPC)
[21] = dose: 240.0 mg/kg/injection, schedule: Q01DX005 (ip), vehicle: Klucel (hydroxypropylcellulose) (HPC)

Measured: T/C

COC(=O)C(NC(N)=O)OC (stereo unspecified)
inactive: [1] 105 % of control | [2] 100 % of control | [3] 103 % of control

Cn1c2c(c(=O)c3cc(O)ccc31)CC(C(C)(C)O)O2 (stereo unspecified)
inactive: [4] 104 % of control | [5] 105 % of control | [6] 104 % of control

O=C(O)C1CC(Cl)C(O)C(Cl)C1 (stereo unspecified)
inactive: [7] 100 % of control | [8] 97 % of control | [9] 100 % of control

Cc1ccc(S(=O)(=O)N/N=C\c2c(-c3ccc(Cl)cc3)nc3sccn23)cc1
inactive: [10] 93 % of control | [11] 94 % of control

CCOP1(=O)CCCCN1Cc1ccccc1 (stereo unspecified)
inactive: [2] 100 % of control | [3] 103 % of control

O=C(O)c1cnc2cc(C(F)(F)F)ccc2c1Nc1ccc2c(c1)OCO2
inactive: dose: 60.0 mg/kg/injection, schedule: Q01DX005 (ip), vehicle: Klucel + Tween-80 103 % of control | dose: 120.0 mg/kg/injection, schedule: Q01DX005 (ip), vehicle: Klucel + Tween-80 98 % of control | dose: 240.0 mg/kg/injection, schedule: Q01DX005 (ip), vehicle: Klucel + Tween-80 97 % of control

NCCCn1[nH]c(=O)c2ncccc2c1=O
inactive: [12] 110 % of control | [13] 112 % of control | [14] 102 % of control

COC[C@H]1OC(=O)c2coc3c2[C@@]1(C)C1=C(C3=O)[C@@H]2CCC(=O)[C@@]2(C)C[C@H]1OC(C)=O
inactive: dose: 0.31 mg/kg/injection, schedule: Q01DX009 (ip), vehicle: saline with Tween-80 115 % of control | dose: 2.5 mg/kg/injection, schedule: Q01DX009 (ip), vehicle: saline with Tween-80 99 % of control and 90 % of control

O=C1C2C3C4C5C(C2C5(Br)C32OCCO2)C14Br (stereo unspecified)
inactive: dose: 100.0 mg/kg/injection, schedule: Q04DX003 (ip), vehicle: Klucel (hydroxypropylcellulose) (HPC) 106 % of control | dose: 200.0 mg/kg/injection, schedule: Q04DX003 (ip), vehicle: Klucel (hydroxypropylcellulose) (HPC) 107 % of control | dose: 400.0 mg/kg/injection, schedule: Q04DX003 (ip), vehicle: Klucel (hydroxypropylcellulose) (HPC) 113 % of control

COc1cccc2c1C(=O)c1c(O)c3c(c(O)c1C2=O)CC(O)(C(=O)CO)CC3OC1CC(N)C(O)C(C)O1 (stereo unspecified) (tested in a mixture with another compound)
inactive: dose: 6.25 mg/kg/injection, schedule: Q01DX009 (ip), vehicle: other 115 % of control | dose: 25.0 mg/kg/injection, schedule: Q01DX009 (ip), vehicle: other 89 % of control

CN1C(=O)CC(=O)N(C)P1(=O)Oc1ccccc1
inactive: dose: 100.0 mg/kg/injection, schedule: Q04DX002 (ip), vehicle: saline 101 % of control | dose: 200.0 mg/kg/injection, schedule: Q04DX002 (ip), vehicle: saline 101 % of control | dose: 400.0 mg/kg/injection, schedule: Q04DX002 (ip), vehicle: saline 101 % of control

Cc1ccc(NC(=O)C2C(=O)N(c3ccc(C)c(C)c3)C(=O)C2N=N)cc1C (stereo unspecified)
inactive: dose: 100.0 mg/kg/injection, schedule: Q01DX001 (ip), vehicle: saline with Tween-80 100 % of control | dose: 200.0 mg/kg/injection, schedule: Q01DX001 (ip), vehicle: saline with Tween-80 101 % of control | dose: 400.0 mg/kg/injection, schedule: Q01DX001 (ip), vehicle: saline with Tween-80 91 % of control

Cc1ccc(SSC(=S)N2CCOCC2)cc1
inactive: [10] 104 % of control | [11] 96 % of control | [15] 101 % of control

COc1cc(C(=O)NC2CC2)cc(OC)c1OC
inactive: [16] 101 % of control | [17] 104 % of control | [18] 107 % of control | dose: 200.0 mg/kg/injection, schedule: Q01DX009 (ip), vehicle: saline with Tween-80 110 % of control

COC1(c2ccccc2)C2CCCCC2C2CCCCC21 (stereo unspecified)
inactive: [7] 100 % of control | [8] 98 % of control | [9] 100 % of control

Nc1nc(N)nc(-c2cccs2)n1
inactive: [16] 92 % of control | [17] 101 % of control | dose: 50.0 mg/kg/injection, schedule: Q04DX002 (ip), vehicle: saline with Tween-80 92 % of control | [18] 100 % of control | dose: 100.0 mg/kg/injection, schedule: Q04DX002 (ip), vehicle: saline with Tween-80 90 % of control | dose: 200.0 mg/kg/injection, schedule: Q04DX002 (ip), vehicle: saline with Tween-80 106 % of control

CCCCN=Cc1c(O)c(O)c(C(C)C)c2cc(C)c(-c3c(C)cc4c(C(C)C)c(O)c(O)c(C=NCCCC)c4c3O)c(O)c12
inactive: [4] 99 % of control | [5] 107 % of control | [6] 114 % of control

COC(=O)CC(=O)c1ccc(OCCOc2ccc(C(C)(C)CC(C)(C)C)cc2)c([N+](=O)[O-])c1
inactive: dose: 50.0 mg/kg/injection, schedule: Q04DX003 (ip), vehicle: saline sonified 100 % of control | dose: 100.0 mg/kg/injection, schedule: Q04DX003 (ip), vehicle: saline sonified 100 % of control | dose: 200.0 mg/kg/injection, schedule: Q04DX003 (ip), vehicle: saline sonified 104 % of control

CCOC(/C=C/c1ccccc1)OCC
inactive: dose: 100.0 mg/kg/injection, schedule: Q04DX003 (ip), vehicle: saline 104 % of control | dose: 200.0 mg/kg/injection, schedule: Q04DX003 (ip), vehicle: saline 104 % of control

OC1CSc2ccccc2-n2cccc21 (stereo unspecified)
inactive: [19] 99 % of control | [20] 106 % of control | [21] 105 % of control

Cc1ccc(NC(=O)Nc2nc3ccccc3s2)cc1NC(=O)Nc1nc2ccccc2s1
inactive: dose: 50.0 mg/kg/injection, schedule: Q01DX009 (ip), vehicle: Klucel (hydroxypropylcellulose) (HPC) 110 % of control | dose: 100.0 mg/kg/injection, schedule: Q01DX009 (ip), vehicle: Klucel (hydroxypropylcellulose) (HPC) 102 % of control | dose: 200.0 mg/kg/injection, schedule: Q01DX009 (ip), vehicle: Klucel (hydroxypropylcellulose) (HPC) 109 % of control

Nc1cc(=O)n(Cc2ccccc2)c(N)c1C(=O)NCc1ccccc1
inactive: [12] 106 % of control | [13] 98 % of control | [14] 100 % of control

CC1CN(CCC#N)CC(C)O1 (stereo unspecified)
inactive: [1] 101 % of control | [2] 101 % of control | [3] 101 % of control | dose: 200.0 mg/kg/injection, schedule: Q01DX009 (ip), vehicle: saline 104 % of control

CCCCCC(C)[P+](c1ccccc1)(c1ccccc1)c1ccccc1 (stereo unspecified)
inactive: dose: 0.39 mg/kg/injection, schedule: Q01DX009 (ip), vehicle: saline with Tween-80 101 % of control | dose: 0.78 mg/kg/injection, schedule: Q01DX009 (ip), vehicle: saline with Tween-80 114 % of control and 120 % of control

O=C(Nc1ccc(S(=O)(=O)Nc2nccs2)cc1)c1cccnc1Nc1cccc(Cl)c1
inactive: [12] 111 % of control | [13] 113 % of control | [14] 106 % of control

NCCNCC[OH2+].NCCNCC[OH2+].[Ni+2].[O-][Cl+3]([O-])([O-])[O-]
inactive: dose: 12.5 mg/kg/injection, schedule: Q01DX009 (ip), vehicle: saline 100 % of control | [1] 93 % of control | [2] 106 % of control and 93 % of control

Cc1cc2n(n1)C(=O)CC(=O)C2
inactive: [12] 98 % of control | [13] 100 % of control | [14] 109 % of control

NC(=O)c1c(Cl)nc2n1CCS2
inactive: [19] 94 % of control | [10] 107 % of control | [20] 95 % of control | [11] 100 % of control | [21] 88 % of control | [15] 109 % of control

CC1=NCCN=C(C)C1N=Nc1ccc(S(=O)(=O)Nc2ncccn2)cc1
inactive: dose: 100.0 mg/kg/injection, schedule: Q04DX003 (ip), vehicle: saline with Tween-80 96 % of control | dose: 200.0 mg/kg/injection, schedule: Q04DX003 (ip), vehicle: saline with Tween-80 93 % of control | dose: 400.0 mg/kg/injection, schedule: Q04DX003 (ip), vehicle: saline with Tween-80 99 % of control

COc1cc(CO)c(I)c(OC)c1OC
inactive: [10] 99 % of control | [11] 97 % of control
